Data reported in patent US11453667B2, “Pyridone-pyrimidine derivative acting as KRASG12C mutein inhibitor” (MEDSHINE DISCOVERY INC., priority 2018, dated 2022).
Read-outs that look alike come from different tables or passages of the source.

Assays:
[1] = Rat pharmacokinetic evaluation experiment; format: in vivo; details: plasma, male SD rats; for AUC: read-out: AUC (exposure)
Excerpt: To determine the drug concentrations in plasma at different times after intravenous and intragastric administration of the test compounds to the rats by using the LC/MS/MS method and using male SD rats as the test animals; To study the pharmacokinetic behaviors of the test compounds in rats and to evaluate the pharmacokinetic characteristics thereof.
Experiment scheme: 10 healthy adult male SD rats were used as experimental animals and divided into 4 groups according to the principle of similar body weight, with 2 in each group of the group IV (two groups) and 3 in each group of the group PO (two groups). The animals were purchased from Beijing Vital River Laboratory Animal Technology Co., Ltd.
Group IV: an appropriate amount of samples were weighed; an appropriate amount of DMSO, PEG400 and water were added successively thereto according to the volume ratio of 10:60:30; and stirring was performed under sonication to reach a clear state of 1.5 mg/mL.
Group PO: an appropriate amount of samples were weighed; an appropriate amount of DMSO, PEG400 and water were added successively thereto according to the volume ratio of 10:60:30; and stirring was performed under sonication to reach a clear state of 1.0 mg/mL.
After fasting overnight, each rat in the group IV was administered intravenously with a volume of 2 mL/kg and a dose of 3 mg/kg; each rat in the group PO was administered intragastrically with a volume of 10 mL/kg and a dose of 10 mg/kg.
After each of the male SD rats in the group IV was administrated with the test compounds, 200 ul of blood samples were collected at 0.0833, 0.25, 0.5, 1, 2, 4, 6, 8 and 24 hours, and were placed in a commercial anticoagulation tube pre-loaded with EDTA-K2. After each rat in the group PO was administrated with the test compounds, 200 ul of blood samples were collected at 0.25, 0.5, 1, 2, 4, 6, 8 and 24 hours respectively, and were placed in a commercial anticoagulation tube pre-loaded with EDTA-K2. The test tube was centrifuged for 15 minutes to separate the plasma and stored at −60° C. 2 hours after administration, the animals can be fed. The content of the test compounds in plasma was determined by the LC/MS/MS method after intravenous and intragastric administration to the rats. The linear range of the method was from 2.00 to 6000 nM; plasma samples were analyzed after treatment of precipitating proteins by acetonitrile.
Note: Cl: clearance rate; Vd: volume of distribution; AUC: exposure; T1/2: half-life; Cmax: maximum compound concentration after oral administration; Tmax: time to reach Cmax; F: bioavailability.

[2] = test system: human non-small cell lung cancer NCI-H358; assay: In vivo drug efficacy test (2): subcutaneous xenograft tumor model; design: species or system BALB/c nude mice; details: 100 mg/kg (0-6 days) + 50 mg/kg (7-20 days)
Experimental: (§1) To evaluate the in vivo efficacy of the test compounds in a subcutaneous xenograft tumor model of human non-small cell lung cancer NCI-H358.
BALB/c nude mice, female, 6-8 weeks old, weighing 18-21 grams. A total of 100 were required. They were provided by Shanghai Lingchang Experimental Animal Co., Ltd ( ? ? ). NCI-H358 tumor cells were resuspended in PBS to prepare 0.1 mL (5×10^6) of cell suspension, which was inoculated subcutaneously on the right back of each mouse (5×10^6/mouse) to wait for tumor growth. When the average tumor volume reached about 150-200 mm^3, randomized grouping and administration were performed, and the administration dose was shown in Table 6. The diameter of the tumor was measured with vernier calipers twice a week. The formula for calculating the tumor volume is: V=0.5a×b^2, wherein a and b represent the long and short diameters of the tumor, respectively. The tumor suppressive effect of the compounds was evaluated by TGI (%). TGI (%) reflects the tumor growth inhibition rate. Calculation of TGI (%): TGI (%)=[(1−(average tumor volume at the end of administration in a treatment group−average tumor volume at the beginning of administration in the treatment group))/(average tumor volume at the end of treatment in the solvent control group−average tumor volume at the beginning of treatment in the solvent control group)]×100%.

[3] = test system: human pancreatic cancer x-MIA-PaCa2 cell; assay: In vivo drug efficacy test (3): subcutaneous xenograft tumor model; design: species or system NU/NU mice; details: 50 mg/kg
Experimental: To evaluate the in vivo efficacy of the test compounds in a subcutaneous xenograft tumor model of human pancreatic cancer x-MIA-PaCa2 cell.
NU/NU mice, female, 6-8 weeks old, weighing 17-20 grams. A total of 100 were required (additional 30% of animals were inoculated). They were provided by Beijing Vital River Science and Technology Co., Ltd. Each mouse was subcutaneously inoculated with 0.2 mL (10×10^6) of x-MIA-PaCa2 cells (plus matrigel, with the volume ratio being 1:1) on the right back. When the average tumor volume reached about 150 mm^3, grouping and administration were performed, and the administration dose was shown in Table 7. The diameter of the tumor was measured with vernier calipers twice a week. The formula for calculating the tumor volume is: V=0.5a×b^2, wherein a and b represent the long and short diameters of the tumor, respectively. The tumor suppressive effect of the compounds was evaluated by TGI (%). TGI (%) reflects the tumor growth inhibition rate. Calculation of TGI (%): TGI (%)=[(1−(average tumor volume at the end of administration in a treatment group−average tumor volume at the beginning of administration in the treatment group))/(average tumor volume at the end of treatment in the solvent control group−average tumor volume at the beginning of treatment in the solvent control group)]×100%.

[4] = test system: human non-small cell lung cancer NCI-H358; assay: In vivo drug efficacy test (4): subcutaneous xenograft tumor model; design: species or system BALB/c nude mice; details: 15 mg/kg
Experimental: as §1
BALB/c nude mice, female, 6-8 weeks old, weighing 18-20 grams. A total of 40 were required. They were provided by Shanghai Lingchang Experimental Animal Co., Ltd ( ? ? ). NCI-H358 tumor cells were resuspended in PBS to prepare a cell suspension with a density of 5×10^7/mL, which was inoculated subcutaneously on the right back of each mouse (0.1 mL, 5×10^6/mouse) to wait for tumor growth. When the average tumor volume reached about 166 mm^3, randomized grouping and administration were performed, and the administration dose was shown in Table 8. The diameter of the tumor was measured with vernier calipers twice a week.
The formula for calculating the tumor volume is: V=0.5a×b^2, wherein a and b represent the long and short diameters of the tumor, respectively. The tumor suppressive effect of the compounds was evaluated by TGI (%). TGI (%) reflects the tumor growth inhibition rate. Calculation of TGI (%): TGI (%)=[(1−(average tumor volume at the end of administration in a treatment group−average tumor volume at the beginning of administration in the treatment group))/(average tumor volume at the end of treatment in the solvent control group−average tumor volume at the beginning of treatment in the solvent control group)]×100%.

KRAS G12C mutation = details: reported in Cell, 2018, 172, 578-589; cited from earlier work
[5] = reported in Cell, 2018, 172, 578-589; cited from earlier work
[6] = test system: pancreatic cancer MIA-Paca2 cell; details: reported in Cell, 2018, 172, 578-589; cited from earlier work

C=CC(=O)N1CCN(c2ncnc3c(F)c(-c4c(O)cccc4F)c(Cl)cc23)CC1 [ARS-1620, reference compound]
AUC ([1]; IV 3 mg/kg): 3.21 µM·h
clearance ([1]; IV 3 mg/kg, read-out: Cl (clearance rate)): 36.3 mL/min/kg
half-life ([1]; IV 3 mg/kg, read-out: T1/2 (half-life) (converted)): 27.7 min
Vd ([1]; IV 3 mg/kg, read-out: Vd (volume of distribution)): 1.08 L/kg
Cmax ([1]; PO 10 mg/kg): 1240 nM
Tmax ([1]; PO 10 mg/kg): 20 min
AUC ([1]; PO 10 mg/kg): 2.32 µM·h
bioavailability ([1]; PO 10 mg/kg, read-out: F (bioavailability)): 22%
Tumor volume (day 20) [2]: 216 mm^3
TGI ([2]; day 20): 90.82%
Tumor volume (day 14) [3]: 907 mm^3
TGI ([3]; day 14): 50.36%
Tumor volume (day 27) [4]: 492 mm^3
TGI ([4]; day 27): 51.78%
cellular anti-proliferative activity at the cellular level (KRAS G12C mutation): nM-level
metabolic stability [5]: good metabolic stability
tumor growth in subcutaneous xenograft tumor model [6]: effectively inhibit tumor growth
